# Results: publication PMC12794336, “Unconventional chalcogen-containing azolylidene metal complexes as potential anticancer therapeutics” (Chemical Science, 2025)
# Read-outs that look alike come from different tables or passages of the source.
# Experiments:
# [1] = system: non-cancerous human embryonic kidney HEK293T cells; test: Cytotoxicity, PrestoBlue assay, HEK293T; type: cell-based; conditions: 72 h, read-out: IC50 (µM) after 72 h, HEK293T
# Method: (§1) counterpart, A2780cis, were procured from the European Collection of Cell
# (§2) (ThermoFisher, USA) base medium supplemented with 10% Foetal Bovine
# (§3) Serum (FBS; Sigma, Germany) and 1% of Penicillin-Streptomycin
# (§4) (ThermoFisher, USA). Additionally, A2780cis cell line was cultured in the
# (§5) drug. The human embryonic kidney cell line, HEK293T, and HeLa cell line were
# (§6) obtained from American Type Culture Collection (ATCC, USA) and were cultured
# (§7) in DMEM GlutaMAX (ThermoFisher, USA) base medium, supplemented with
# (§8) 10% FBS and 1% of Penicillin-Streptomycin. All cell lines were maintained in a
# (§9) humidified incubator at37 °C and 5% CO2.
# (§10) 4.2. Cytotoxicity studies
# (§11) cells/mL (A2780cis and HEK293T) was dispensed into flat bottom 96-well plates
# (§12) and allowed to attach overnight. On the next day, 10 mM stock solutions of the
# (§13) tested compounds were prepared in DMSO, then diluted with media to the final
# (§14) concentration range of 0 - 100 µM and applied to the cells; 0.1% DMSO final
# (§15) solution and 10 µM final concentration gambogic acid were used as negative and
# (§16) positive controls, respectively. After 72 h incubation in a humidified incubator
# (§17) under 5% CO2 at 37 °C, PrestoBlue™ cell viability reagent (Cat. No. A13262,
# (§18) Invitrogen, USA) was added to cultures at a 1:10 ratio according to the
# (§19) manufacturer instructions, and samples were incubated for 1.5 h. Fluorescence
# (§20) at 560/590 nm was detected with Tecan Infinite 500 microplate reader (Tecan,
# (§21) Switzerland). Three wells were assessed for each concentration of the tested
# (§22) compounds and three independent experiments were performed. Non-linear
# (§23) regression and IC50 value calculation were performed in GraphPad Prism 9 using
# (§24) the build-in function “Dose response- Inhibition”.
# [2] = system: A2780cis cells with acquired resistance to cisplatin; test: Cytotoxicity, PrestoBlue assay, A2780cis; type: cell-based, human; conditions: for IC50: 72 h, read-out: IC50 (µM) after 72 h, A2780cis; for Resistance index (RI): RI = IC50 A2780cis/IC50 A2780
# Method: as §1, §2, §3, §4, §5, §6, §7, §8, §9, §10, §11, §12, §13, §14, §15, §16, §17, §18, §19, §20, §21, §22, §23, §24
# [3] = system: A2780 ovarian cancer cell line; test: Cytotoxicity, PrestoBlue assay, A2780; type: cell-based, human; conditions: read-out: IC50 (µM) after 72 h, A2780
# Method: as §1, §2, §3, §4, §5, §6, §7, §8, §9, §10, §11, §12, §13, §14, §15, §16, §17, §18, §19, §20, §21, §22, §23, §24
# [4] = system: ovarian cancer cell lines (A2780 and A2780cis); test: Cytotoxicity stated jointly for both ovarian cancer cell lines
# Method: as §1, §2, §3, §4, §5, §6, §7, §8, §9, §10, §11, §12, §13, §14, §15, §16, §17, §18, §19, §20, §21, §22, §23, §24
# [5] = n-octanol/water partition coefficient; type: physicochemical
# Excerpt: Resistance index (RI) ^a, and n-octanol/water partition coefficients (logPOW) | column: logPOW
# [6] = system: DNA synthesis in HeLa cells; test: EdU incorporation assay, fluorescence cell microscopy; type: cell-based; conditions: for Degree of inhibition of DNA synthesis: 3 µM, 24 h, gemcitabine = 100%, DMSO = 0%
# Excerpt: The inhibitory effect of Pt1^Y and Pt2^Y (Y = NR, O, S) on DNA synthesis during cell proliferation was quantified in cellulo using an EdU incorporation assay and fluorescence cell microscopy (Fig. 6 and SI Fig. 12).[70] Gemcitabine, a clinically-approved DNA synthesis inhibitor,[71] was used as a positive control (100% inhibition), and the cells treated with an equivalent amount of DMSO served as a negative control (“untreated”, 0% inhibition). Cisplatin and transplatin were included as references. DNA synthesis was blocked to various degrees in the cells treated with the different platinum complexes. […]
# 4.4. EdU incorporation assay
# EdU incorporation assay was performed using a Click-iT EdU Imaging kit
# (C10086, Thermo Fisher, Switzerland) according to the manufacturer’s protocol.
# HeLa cells were seeded into a black 96-well PhenoPlate with optically clear flat-bottom (Revity 6055302) at a concentration of 4000 cells per well. After 24 h, the cells were treated with the tested compounds Pt1Y and Pt2Y (Y = NR, O, S), […]
# of the compounds in HeLA cells). Gemcitabine (1 and 3 µM) and an equal volume of DMSO were used as positive and negative control, respectively. Each condition was tested in triplicate. The assay was performed after an incubation of 24 h. The cells were additionally stained by Hoechst 33342 diluted in PBS with 3% BSA. The fluorescent signal was detected with the widefield INCell 2200 microscope (GE health care, USA) using a 10X/0.45 objective. The DAPI channel was used for Hoechst 33342 emitting blue (λex = 390/ 18 nm, λem = 432.5/ 48 nm), and the FITC channel for Edu-AlexaFluor-488 (λex = 475/ 28 nm, λem = 511.5/23 nm) emitting in green. For each well, 9 fields of view were captured. Image analysis was performed using CellProfiler (v4.2.5), CellProfiler Analyst (v3.0.4) and FIJI (v1.54k) software. Images were first pre -processed (correction for flat - field illumination using a Gaussian-based smoothing filter and rescaled for segmentation). All cells were segmented using the minimum cross -entropy thresholding method on an intermediate image composed of the addition of 2 channels imaged. For all cells, featur es of size, shape, and fluorescence intensities were extracted. Cells were then either classified directly as live or dead based on a combination of their size and EdU staining intensity or classified automatically as live or dead using a machine learning -based random forest classifier model in a multiparametric approach. The readout used is the average percentage of live or dead cells in each condition and the values are normalised to gemcitabine at 3 μM and DMSO (untreated) with the corresponding volume at […]
# [7] = Homo sapiens, HEK-293T, PrestoBlue
# [8] = Homo sapiens, A2780cis, PrestoBlue
# [9] = Homo sapiens, A2780, 72 h, PrestoBlue
SMILES,"IC50 [1, 7]","IC50 [2, 8]","IC50 [3, 9]",IC50 ([1]; PrestoBlue),IC50 ([2]; PrestoBlue),Resistance index (RI) [2],"IC50 ([3]; 72 h, PrestoBlue)",other results
CCn1c[n+](CC)c2ccccc21 [3NEt·HI],> 100 µM,> 100 µM,> 100 µM,,,,,
c1ccc(C[n+]2ccsc2)cc1 [2S·HBr],> 100 µM,73.5 µM,58.6 µM,,,,,
[I][Pt-2]([I])([c]1n(Cc2ccccc2)cc[n+]1Cc1ccccc1)[n+]1ccccc1 [Pt2^NBn],,,,1.4 ± 0.1 µM,1.2 ± 0.1 µM,1.9,0.6 ± 0.2 µM,IC50 [4]: ~1 µM; logPOW [5]: 2.1 ± 0.8; Degree of inhibition of DNA synthesis [6]: 100%
CC[n+]1[c]([Au-][I])oc2ccccc21 [Au3^O],,,,1 ± 0.1 µM,5 ± 2 µM,31.5,0.2 ± 0.2 µM,"IC50 ([1]; PrestoBlue, listed as Au3^S): 1.9 ± 0.3 µM; IC50 ([1]; PrestoBlue, listed as Au3^Se): 0.1 ± 0.1 µM; logPOW ([5]; n-octanol/water): 1.2 ± 0.4; logPOW ([5]; n-octanol/water, listed as Au3^S): 1.5 ± 0.1; logPOW ([5]; n-octanol/water, listed as Au3^Se): 1.4 ± 0.3; IC50 ([2]; PrestoBlue, listed as Au3^S): 6.4 ± 0.4 µM; IC50 ([2]; PrestoBlue, listed as Au3^Se): 0.2 ± 0.1 µM; Resistance index (RI) ([2]; listed as Au3^S): 29.2; Resistance index (RI) ([2]; listed as Au3^Se): 3.4; IC50 ([3]; 72 h, PrestoBlue, listed as Au3^S): 0.2 ± 0.1 µM; IC50 ([3]; 72 h, PrestoBlue, listed as Au3^Se): 0.1 ± 0.1 µM"
"N.N.[Cl][Pt][Cl] [Cisplatin, cisplatin, reference compound]",,,,1.5 ± 0.2 µM,8 ± 5 µM,,0.4 ± 0.1 µM,"Degree of inhibition of DNA synthesis [6]: 62%; IC50 ([2]; PrestoBlue, listed as cisplatin): 8.4 ± 4.6 µM"
"N.N.[Cl][Pt+2][Cl] [transplatin, reference compound]",,,,,,,,Degree of inhibition of DNA synthesis [6]: 23%
C[n+]1ccoc1 [1O·HI],59.1 ± 16.6 µM,39.8 ± 2.6 µM,11.8 µM,,,,,
c1ccc(Cn2c[n+](Cc3ccccc3)c3ccccc32)cc1 [4NBn·HBr],35.2 ± 26.3 µM,24.4 ± 11.7 µM,15.2 ± 12.1 µM,,,,,
C[n+]1ccsc1 [1S·HI],> 100 µM,> 100 µM,> 100 µM,,,,,
CCn1[c]([Au-][I])[n+](CC)c2ccccc21 [Au3^NEt],,,,2.1 ± 0.6 µM,2.7 ± 0.1 µM,4.9,0.6 ± 0.2 µM,logPOW ([5]; n-octanol/water): 1.6 ± 1.1
C[n+]1cco[c]1[Pt-2]([I])([I])[n+]1ccccc1 [Pt1^O],,,,18 ± 6 µM,16 ± 4 µM,2.0,8 ± 2 µM,"IC50 ([1]; PrestoBlue, listed as Pt1^S): 47 ± 23 µM; Degree of inhibition of DNA synthesis [6]: 38%; Degree of inhibition of DNA synthesis ([6]; listed as Pt1^S): 6%; IC50 ([2]; PrestoBlue, listed as Pt1^S): 30 ± 29 µM; Resistance index (RI) ([2]; listed as Pt1^S): 2.4; IC50 ([3]; 72 h, PrestoBlue, listed as Pt1^S): 13 ± 8 µM"
c1ccc(C[n+]2csc3ccccc32)cc1 [4S·HBr],36.8 ± 19.3 µM,37.9 ± 1.7 µM,34.7 µM,,,,,
"CC(=O)OC[C@H]1O[C@@H]([S-])[C@H](OC(C)=O)[C@@H](OC(C)=O)[C@@H]1OC(C)=O.CCP(CC)CC.[Au+] [Auranofin, auranofin, reference compound]",,,,0.4 ± 0.1 µM,1.9 ± 0.4 µM,20.6,0.1 ± 0.1 µM,
"Nc1ccn([C@@H]2O[C@H](CO)[C@@H](O)C2(F)F)c(=O)n1 [gemcitabine, reference compound]",,,,,,,,"inhibition at 1 µM ([6]; Homo sapiens, gemcitabine 1 µM, set as 100%, read-out: Degree of inhibition of DNA synthesis (positive control)): 100%"
CC[n+]1csc2ccccc21 [3S·HI],> 100 µM,> 100 µM,> 100 µM,,,,,
Cn1cc[n+](C)[c]1[Pt-2]([I])([I])[n+]1ccccc1 [Pt1^NMe],,,,4 ± 1 µM,2.8 ± 0.7 µM,1.0,2.9 ± 0.2 µM,IC50 [4]: ~3 µM; logPOW [5]: 1.3 ± 0.6; Degree of inhibition of DNA synthesis [6]: 29%
c1ccc(C[n+]2ccoc2)cc1 [2O·HBr],> 100 µM,> 100 µM,> 100 µM,,,,,
c1ccc(C[n+]2c[se]c3ccccc32)cc1 [4Se·HBr],,,,,,,,"IC50 ([1]; Homo sapiens, HEK-293T): 20.5 ± 14.2 µM; IC50 ([2]; Homo sapiens, A2780cis): 28.4 ± 8 µM; IC50 ([3]; Homo sapiens, A2780, 72 h): 13.5 ± 5.9 µM"
[I][Pt-2]([I])([c]1occ[n+]1Cc1ccccc1)[n+]1ccccc1 [Pt2^O],,,,6 ± 2 µM,5 ± 2 µM,1.5,4 ± 1 µM,"IC50 ([1]; PrestoBlue, listed as Pt2^S): 9 ± 2 µM; IC50 ([4]; read-out: Cytotoxicity (IC50) in the ovarian cancer cell lines, A2780 and A2780cis together, approximate text values, 72 h): ~5 µM; IC50 ([4]; read-out: Cytotoxicity (IC50) in the ovarian cancer cell lines, A2780 and A2780cis together, approximate text values, 72 h, listed as Pt2^S): ~8 µM; logPOW ([5]; n-octanol/water): 1.6 ± 0.2; logPOW ([5]; n-octanol/water, listed as Pt2^S): 1.8 ± 1.0; Degree of inhibition of DNA synthesis [6]: 37%; Degree of inhibition of DNA synthesis ([6]; listed as Pt2^S): 24%; IC50 ([2]; PrestoBlue, listed as Pt2^S): 12 ± 3 µM; Resistance index (RI) ([2]; listed as Pt2^S): 2.2; IC50 ([3]; 72 h, PrestoBlue, listed as Pt2^S): 6 ± 1 µM"
CC[n+]1coc2ccccc21 [3O·HI],> 100 µM,> 100 µM,> 100 µM,,,,,
c1ccc(Cn2cc[n+](Cc3ccccc3)c2)cc1 [2NBn·HBr],51.1 ± 12.4 µM,44.1 µM,37.4 µM,,,,,
Cn1cc[n+](C)c1 [1NMe·HI],> 100 µM,> 100 µM,> 100 µM,,,,,
